Results published in patent US9603364B2 (Dow AgroSciences LLC, priority 2013, dated 2017).

Key:
Test in all cases: General post-emergent herbicidal activity, foliar application
Format in all cases: in vivo
[1] = test system: Amaranthus retroflexus L. (pigweed, redroot); settings: for pest or weed control at 280 g/ha: 280 g ai/ha; for pest or weed control at 140 g/ha: 140 g ai/ha; for GR80 Value AMARE: calculated by probit analysis, dose for 80% visual injury, may be extrapolated
In short: (§1)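 Compounds in acetone/DMSO 97:3 were diluted into aqueous spray mix with isopropanol, crop oil concentrate and Triton X-155, then serially diluted to 1/2×–1/16× of the top rate and sprayed on foliage. Plants were kept in greenhouse with sub-irrigation. Injury was scored visually (0–100%) at 14 days; GR20/GR50/GR80 came from probit analysis.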

[2] = test system: Chenopodium album L. (lambsquarters, common); settings: for pest or weed control at 280 g/ha: 280 g ai/ha; for pest or weed control at 140 g/ha: 140 g ai/ha; for GR80 Value CHEAL: calculated by probit analysis, dose for 80% visual injury, may be extrapolated
In short: as §1

[3] = test system: Echinochloa crus-galli (L.) Beauv. (barnyardgrass); settings: for pest or weed control at 280 g/ha: 280 g ai/ha; for pest or weed control at 140 g/ha: 140 g ai/ha; for GR80 Value ECHCG: calculated by probit analysis, dose for 80% visual injury, may be extrapolated
In short: as §1

[4] = test system: Euphorbia heterophylla L. (poinsettia, wild); settings: for pest or weed control at 280 g/ha: 280 g ai/ha; for pest or weed control at 140 g/ha: 140 g ai/ha; for GR80 Value EPHHL: calculated by probit analysis, dose for 80% visual injury, may be extrapolated
In short: as §1

[5] = test system: Helianthus annuus L. (sunflower, common); settings: for pest or weed control at 280 g/ha: 280 g ai/ha; for pest or weed control at 140 g/ha: 140 g ai/ha; for GR80 Value HELAN: calculated by probit analysis, dose for 80% visual injury, may be extrapolated
In short: as §1

[6] = test system: Viola tricolor L. (pansy); settings: for pest or weed control at 280 g/ha: 280 g ai/ha; for pest or weed control at 140 g/ha: 140 g ai/ha; for GR80 Value VIOTR: calculated by probit analysis, dose for 80% visual injury, may be extrapolated
In short: as §1

Oryza sativa L. (rice) = settings: Oryza sativa, 336 h, scored after 14 days, read-out: % Visual Growth Reduction ORYSA; for plant injury at 280 g/ha: 280 g ai/ha; for plant injury at 140 g/ha: 140 g ai/ha
In short: (§2)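 Injury rated visually 14 days after treatment on a 0 (none) to 100% (complete kill) scale against untreated plants; greenhouse-grown, sub-irrigated to avoid wash-off. Foliar spray in aqueous acetone/DMSO with isopropanol, crop oil concentrate and Triton X-155, at a highest rate and 2-fold serial dilutions down to 1/16×.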

Zea mays L. (corn) = settings: 336 h, scored after 14 days, read-out: % Visual Growth Reduction ZEAMX; for plant injury at 280 g/ha: 280 g ai/ha; for plant injury at 140 g/ha: 140 g ai/ha
In short: as §2

[7] = Amaranthus retroflexus, 336 h, foliar post-emergent, scored after 14 days, read-out: % Visual Growth Reduction AMARE
[8] = Chenopodium album, 336 h, foliar post-emergent, scored after 14 days, read-out: % Visual Growth Reduction CHEAL
[9] = Echinochloa crus-galli, 336 h, foliar post-emergent, scored after 14 days, read-out: % Visual Growth Reduction ECHCG
[10] = Euphorbia heterophylla, 336 h, foliar post-emergent, scored after 14 days, read-out: % Visual Growth Reduction EPHHL
[11] = Helianthus annuus, 336 h, foliar post-emergent, scored after 14 days, read-out: % Visual Growth Reduction HELAN
[12] = Viola tricolor, 336 h, foliar post-emergent, scored after 14 days, read-out: % Visual Growth Reduction VIOTR

Structure (SMILES)	pest or weed control at 280 g/ha [1, 7] [%]	pest or weed control at 280 g/ha [2, 8] [%]	pest or weed control at 280 g/ha [3, 9] [%]	pest or weed control at 280 g/ha [4, 10] [%]	pest or weed control at 280 g/ha [5, 11] [%]	pest or weed control at 280 g/ha [6, 12] [%]	plant injury at 280 g/ha (Oryza sativa L. (rice)) [%]	plant injury at 280 g/ha (Zea mays L. (corn)) [%]	pest or weed control at 140 g/ha [1, 7] [%]	pest or weed control at 140 g/ha [2, 8] [%]	pest or weed control at 140 g/ha [3, 9] [%]	pest or weed control at 140 g/ha [4, 10] [%]	pest or weed control at 140 g/ha [5, 11] [%]	pest or weed control at 140 g/ha [6, 12] [%]	plant injury at 140 g/ha (Oryza sativa L. (rice)) [%]	plant injury at 140 g/ha (Zea mays L. (corn)) [%]	GR80 Value AMARE [1] [g ai/ha]	GR80 Value CHEAL [2] [g ai/ha]	GR80 Value ECHCG [3] [g ai/ha]	GR80 Value EPHHL [4] [g ai/ha]	also measured
COC(=O)c1nc(CCl)c(F)c(N)c1Cl [Compound F21, Methyl 4-amino-3-chloro-6-(chloromethyl)-5-fluoropicolinate]	0	0	0	0	0	0	0	0	–	–	–	–	–	–	–	–	–	–	–	–	–
C=C(F)c1nc(C(=O)OC)c(Cl)c(N)c1F [Compound F22, methyl 4-amino-3-chloro-5-fluoro-6-(1-fluorovinyl)picolinate]	90	90	0	60	80	10	0	0	90	90	0	50	80	10	0	0	–	–	–	–	–
CC(F)c1cc(N)c(Cl)c(C(=O)O)n1 (stereo not drawn) [Compound F24, 4-Amino-3-chloro-6-(1-fluoroethyl)picolinic acid]	100	100	90	95	80	100	10	10	100	100	80	90	75	100	0	0	12.3	<17.5	165	122	pest or weed control at 35 g/ha ([1]; Amaranthus retroflexus, 336 h, 35 g ai/ha, foliar post-emergent, scored after 14 days, read-out: % Visual Growth Reduction AMARE): 90%; pest or weed control at 70 g/ha ([1]; Amaranthus retroflexus, 336 h, 70 g ai/ha, foliar post-emergent, scored after 14 days, read-out: % Visual Growth Reduction AMARE): 100%; pest or weed control at 35 g/ha ([2]; Chenopodium album, 336 h, 35 g ai/ha, foliar post-emergent, scored after 14 days, read-out: % Visual Growth Reduction CHEAL): 100%; pest or weed control at 70 g/ha ([2]; Chenopodium album, 336 h, 70 g ai/ha, foliar post-emergent, scored after 14 days, read-out: % Visual Growth Reduction CHEAL): 100%; pest or weed control at 35 g/ha ([3]; Echinochloa crus-galli, 336 h, 35 g ai/ha, foliar post-emergent, scored after 14 days, read-out: % Visual Growth Reduction ECHCG): 0%; pest or weed control at 70 g/ha ([3]; Echinochloa crus-galli, 336 h, 70 g ai/ha, foliar post-emergent, scored after 14 days, read-out: % Visual Growth Reduction ECHCG): 55%; pest or weed control at 35 g/ha ([4]; Euphorbia heterophylla, 336 h, 35 g ai/ha, foliar post-emergent, scored after 14 days, read-out: % Visual Growth Reduction EPHHL): 5%; pest or weed control at 70 g/ha ([4]; Euphorbia heterophylla, 336 h, 70 g ai/ha, foliar post-emergent, scored after 14 days, read-out: % Visual Growth Reduction EPHHL): 80%; pest or weed control at 35 g/ha ([5]; Helianthus annuus, 336 h, 35 g ai/ha, foliar post-emergent, scored after 14 days, read-out: % Visual Growth Reduction HELAN): 50%; pest or weed control at 70 g/ha ([5]; Helianthus annuus, 336 h, 70 g ai/ha, foliar post-emergent, scored after 14 days, read-out: % Visual Growth Reduction HELAN): 65%; GR80 Value HELAN [5]: 199 g ai/ha; pest or weed control at 35 g/ha ([6]; Viola tricolor, 336 h, 35 g ai/ha, foliar post-emergent, scored after 14 days, read-out: % Visual Growth Reduction VIOTR): 85%; pest or weed control at 70 g/ha ([6]; Viola tricolor, 336 h, 70 g ai/ha, foliar post-emergent, scored after 14 days, read-out: % Visual Growth Reduction VIOTR): 100%; GR80 Value VIOTR [6]: 36.7 g ai/ha; plant injury at 35 g/ha (Oryza sativa L. (rice); 35 g ai/ha): 0%; plant injury at 70 g/ha (Oryza sativa L. (rice); 70 g ai/ha): 0%; plant injury at 35 g/ha (Zea mays L. (corn); 35 g ai/ha): 0%; plant injury at 70 g/ha (Zea mays L. (corn); 70 g ai/ha): 0%
Nc1c(Cl)c(CF)nc(C(=O)O)c1Cl [Compound F25, 4-Amino-3,5-dichloro-6-(fluoromethyl)picolinic acid]	85	80	50	100	90	0	0	0	80	80	0	100	80	0	0	0	180	176	373	<17.5	GR80 Value HELAN [5]: 146 g ai/ha; GR80 Value VIOTR [6]: >280 g ai/ha
